Usually EC50 stands for the concentration at which the effect is half-maximal.

This is an account of results in patent US10208074B2, “Pyrazole compounds and method for making and using the compounds” (Rigel Pharmaceuticals, Inc., priority 2015, dated 2019).

One assay relates to IL-23p19. The experiment in a line: LPS induced IL23p19 in THP-1 cells (with IFNγ primed) assay. Type of assay: cell-based, Human. The note with it: THP-1 cells, IFNγ primed, LPS 1 ug/mL, 18 hours, 10 pt, read-out: IL23-p19 ELISA, THP1-IFNy, LPS, 10 pt EC50. Summed up:
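Readout is secreted IL-23p19, quantified by chemiluminescent sandwich ELISA after 18 h LPS (1 ug/mL) stimulation of THP-1 cells that had been IFNγ-primed (50 ng/mL, ~18 h) and given compound 1 h beforehand at 37 °C. EC50 derived by curve fit; cytotoxicity tracked with Cell Titer Glo.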

The next assay has as its system IL-23 (p19/p40). The assay is described as follows: IL23-p19 ELISA, Dendritic, LPS (compound screening using DC cells). The assay is classed as cell-based, Human. As to conditions: PBMC-derived DC cells, IFNγ primed, LPS 1 μg/ml, 18 hours, 10 pt, read-out: IL23-p19 ELISA, Dendritic, LPS, 10 pt, EC50. Summed up: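 IL-23 in supernatants quantified by sandwich ELISA (anti-p19 capture, biotinylated anti-p40 detection, chemiluminescent readout) after 18 h LPS (1 μg/ml) stimulation. Cells were monocyte-derived DCs (GM-CSF/IL-4, 7 d), IFNγ-primed 24 h and given compound 1 h before LPS; viability by CellTiter Glo.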
For orientation: ELISA stands for enzyme-linked immunosorbent assay.

Where a name gives a salt, the structure may show the parent alone. Read-outs that look alike come from different tables or passages of the source.

As for `CN1CCN(CCn2cc(NC(=O)c3ccc(-c4cn[nH]c4)o3)c(-c3ccccn3)n2)CC1` [Compound I-112, N-(1-(2-(4-methylpiperazin-1-yl)ethyl)-3-(pyridin-2-yl)-1H-pyrazol-4-yl)-5-(1H-pyrazol-4-yl)furan-2-carboxamide], the EC50 with IL-23p19 (Homo sapiens, THP-1, 18 h) was 42.8 nM; in the assay with IL-23 (p19/p40) (Homo sapiens, 18 h) it was 40.7 nM.

As to `CC(C)O[C@H]1C[C@@H](n2cc(NC(=O)c3ccc(-c4cn[nH]c4)o3)c(-c3ccccn3)n2)C1` [Compound I-114, N-(1-((1s,3s)-3-isopropoxycyclobutyl)-3-(pyridin-2-yl)-1H-pyrazol-4-yl)-5-(1H-pyrazol-4-yl)furan-2-carboxamide], the EC50 in the assay on IL-23p19 (Homo sapiens, THP-1, 18 h) amounted to 49.3 nM; in the assay with IL-23 (p19/p40) (Homo sapiens, 18 h), 61.6 nM.

`O=C(Nc1cn(C(F)F)nc1-c1ccccn1)c1ccc(-c2cn[nH]c2)o1` [Compound I-115, N-(1-(difluoromethyl)-3-(pyridin-2-yl)-1H-pyrazol-4-yl)-5-(1H-pyrazol-4-yl)furan-2-carboxamide]: the EC50 in the assay with IL-23p19 (Homo sapiens, THP-1, 18 h) was determined as 91.3 nM; in the assay with IL-23 (p19/p40) (Homo sapiens, 18 h), 365 nM.

Take `CCO[C@H]1C[C@@H](n2cc(NC(=O)c3ccc(-c4cn[nH]c4)o3)c(-c3cccc(C(F)(F)F)n3)n2)C1` [Compound I-116, N-(1-((1s,3s)-3-ethoxycyclobutyl)-3-(6-(trifluoromethyl)pyridin-2-yl)-1H-pyrazol-4-yl)-5-(1H-pyrazol-4-yl)furan-2-carboxamide]: the concentration for a half-maximal effect (EC50) in the assay on IL-23p19 (Homo sapiens, THP-1, 18 h) is 226 nM; with IL-23 (p19/p40) (Homo sapiens, 18 h), 218 nM.

As to `O=C(Nc1cn(CC(F)(F)F)nc1-c1ccccn1)c1ccc(-c2cn[nH]c2)o1` [Compound I-117, 5-(1H-pyrazol-4-yl)-N-(3-(pyridin-2-yl)-1-(2,2,2-trifluoroethyl)-1H-pyrazol-4-yl)furan-2-carboxamide], the EC50 in the assay with IL-23p19 (Homo sapiens, THP-1, 18 h) is 284 nM; in the assay on IL-23 (p19/p40) (Homo sapiens, 18 h), 25.7 nM.

In the case of `CCOCCn1cc(NC(=O)c2ccc(-c3cn[nH]c3)o2)c(-c2nccs2)n1` [Compound I-118, N-(1-(2-ethoxyethyl)-3-(thiazol-2-yl)-1H-pyrazol-4-yl)-5-(1H-pyrazol-4-yl)furan-2-carboxamide formate], the EC50 in the assay with IL-23p19 (formate) was 68.1 nM; in the assay with IL-23 (p19/p40) (formate) it was 161 nM.

With `CCOCCn1cc(NC(=O)c2ccc(-c3cn[nH]c3)o2)c(-c2nccs2)n1` [Compound I-119, N-(1-(2-ethoxyethyl)-3-(thiazol-2-yl)-1H-pyrazol-4-yl)-5-(1H-pyrazol-4-yl)furan-2-carboxamide], the EC50 stood at 154 nM with IL-23p19 and 430 nM with IL-23 (p19/p40).

`O=C(Nc1cn(C2CCOC2)nc1-c1nccs1)c1ccc(-c2cn[nH]c2)o1` (stereo not shown) [Compound I-120, 5-(1H-pyrazol-4-yl)-N-(1-(tetrahydrofuran-3-yl)-3-(thiazol-2-yl)-1H-pyrazol-4-yl)furan-2-carboxamide formate]: the EC50 in the assay with IL-23p19 (Homo sapiens, THP-1, 18 h) amounted to 52.8 nM; with IL-23 (p19/p40) (Homo sapiens, 18 h), 94.8 nM.

Regarding `O=C(Nc1cn([C@H]2CC[C@@H](O)CC2)nc1-c1ccccn1)c1ccc(-c2cn[nH]c2)o1` [Compound I-124, N-(1-((1s,4s)-4-hydroxycyclohexyl)-3-(pyridin-2-yl)-1H-pyrazol-4-yl)-5-(1H-pyrazol-4-yl)furan-2-carboxamide formate], the EC50 with IL-23p19 (Homo sapiens, THP-1, 18 h) worked out at 53.4 nM; with IL-23 (p19/p40) (Homo sapiens, 18 h), 101 nM.

On to `O=C(Nc1cn([C@H]2CC[C@H](O)CC2)nc1-c1ccccn1)c1ccc(-c2cn[nH]c2)o1` [Compound I-126, N-(1-((1r,4r)-4-hydroxycyclohexyl)-3-(pyridin-2-yl)-1H-pyrazol-4-yl)-5-(1H-pyrazol-4-yl)furan-2-carboxamide formate], for which the EC50 in the assay with IL-23p19 (Homo sapiens, THP-1, 18 h) came to 81.9 nM; in the assay on IL-23 (p19/p40) (Homo sapiens, 18 h), 21.5 nM.

Regarding `O=C(Nc1cn([C@H]2C[C@H](OCC(F)(F)F)C2)nc1-c1ccccn1)c1ccc(-c2cn[nH]c2)o1` [Compound I-128, 5-(1H-pyrazol-4-yl)-N-(3-(pyridin-2-yl)-1-(3-(2,2,2-trifluoroethoxy)cyclobutyl)-1H-pyrazol-4-yl)furan-2-carboxamide formate], the EC50 in the assay with IL-23p19 (Homo sapiens, THP-1, 18 h) was 134 nM; in the assay with IL-23 (p19/p40) (Homo sapiens, 18 h) it was 60.4 nM.
